The values below come from patent publication US20250090510A1, “eIF4G1-eIF1 INHIBITORS AND USE THEREOF” (YEDA RESEARCH AND DEVELOPMENT CO. LTD., priority 2022, published 2025).

Data set [1] has as its system human blood cells. Kind of data set: Effect on host blood cells in the parasitemia assay. The settings on record: i14G1-10 20 uM, i14G1-12 10 uM; 1 hour.
Description: Parasitemia assay. The NF54 strain of the Plasmodium falciparum was used for the Survival test. Parasites were grown in RPMI medium pH 7.4, 25 mg/ml HEPES, 50 μg/ml hypoxanthine, 2 mg/ml sodium bicarbonate, 20 μg/ml gentamycin, and 0.5% (w/v) Albumax II (Invitrogen). Pooled donor red blood cells, provided by the Israeli blood bank, at 4% hematocrit, and incubated at 37° C. in a gas mixture of 1% 02, 5% CO2 in N2 were used.
Parasitaemia levels were measured 24 hours later.
The target in data set [2] is T1, eIF4G1 (Homo sapiens, UniProt Q04637).
T1 construct: The pET-28-His-bdSumo-eIF4G1 (675-1129) was generated using eIF4G1 (675-1129) as insert and pET-28-14His-bdSumo as backbone; bdSUMO (N); made in house; host or cells: E. coli BL21
T1 sequence (Q04637 675-1129): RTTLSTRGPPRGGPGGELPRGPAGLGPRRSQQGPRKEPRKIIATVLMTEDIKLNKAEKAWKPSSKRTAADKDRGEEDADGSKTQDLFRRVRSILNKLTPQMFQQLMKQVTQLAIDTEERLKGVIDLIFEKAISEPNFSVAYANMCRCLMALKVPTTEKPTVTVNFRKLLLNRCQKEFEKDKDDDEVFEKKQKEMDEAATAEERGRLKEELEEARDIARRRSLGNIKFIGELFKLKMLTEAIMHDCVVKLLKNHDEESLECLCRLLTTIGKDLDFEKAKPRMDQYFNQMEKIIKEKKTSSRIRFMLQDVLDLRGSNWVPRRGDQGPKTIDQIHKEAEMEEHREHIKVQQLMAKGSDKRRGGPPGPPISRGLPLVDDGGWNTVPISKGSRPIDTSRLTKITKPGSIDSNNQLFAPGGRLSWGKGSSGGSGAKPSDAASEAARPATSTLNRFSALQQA
As to the kind of experiment: Intrinsic fluorescence of His-eIF4G1. Type of data set: binding. The settings on record: 0-256 μM, 5 minutes, excitation 280 nm, emission 350 nm; read-out: IC50, loss of eIF4G1 intrinsic fluorescence. From the text: FIGS. 1A-G: Identification and initial characterization of eIF1-eIF4G1 inhibitors using a high-throughput drug screen (HTS). (1A) A flowchart describing the steps of the recombinant eIF1-eIF4G1 split-RL HTS. (1B) Selection of drugs that inhibit leaky scanning. HEK293T cells were transfected with a short 5′UTR bearing GFP reporter gene described on the top, treated with the indicated HTS hits, and then analyzed by western blot with GFP antibody. US and DS denote upstream and downstream AUG initiation sites, respectively. (1C) A graph showing the change in the ratio of the upstream and downstream AUG following treatment with the indicated drugs. (1D) The chemical structure of the eIF1-eIF4G1 inhibitors, i14G1-10 and i14G1-12. (1E) His-tagged eIF4G1 and His-tagged eIF1 were expressed in BL21 bacteria and purified using nickel NTA beads. Purified His-tagged eIF4G1 and His-tagged eIF1 were incubated with the indicated doses of either i14G1-10 (0-256 μM) or i14G1-12 (0-256 μM) for 5 minutes, followed by fluorescence measurement. […] IC50 was calculated using Graphpad prism 9. […]
Intrinsic fluorescence of His-eIF1 and His-eIF4G1. […] After 5 minutes, fluorescence (280/350) was measured on Cytation 5 multi-mode reader (Biotek). The fluorescence intensity values corresponding to respective concentration in both i14G1-10 and i14G1-12 treatments were plotted and IC50 was calculated using GraphPad Prism 9.0. […]

Consider `O=C(/C=C/Sc1ccc(C(F)(F)F)cn1)c1ccccc1` [i14G1-10], for which the “effect on human blood cells” value in data set [1] was “not adversely affected”.
The IC50 is the concentration that gives 50% inhibition. For `Cn1ccnc1S/C(=C/C=C(C#N)C#N)c1ccc(Cl)cc1` [i14G1-12], the IC50 in data set [2] stood at 58.4 µM.
